The values that follow are results of earlier work, collected in US20130101864A1, “Multifunctional Long-Acting Rust-Proof Film and Manufacturing Method Thereof” (Zhejiang Great Southeast Packaging Co., Ltd., priority 2010, published 2013).

For data set [1] the following is noted: no harmful physiological toxicity on human body.

As for `c1ccc2[nH]nnc2c1` [Benzotriazole], the toxicity entry in data set [1] is reported as “non-toxic”. For the same compound, the “solubility in organic solvents” value (alcohol, benzene, toluene, chloroform and dimethylformamide) was “soluble”. Moreover, the solubility in water result (water) is on record as “slightly soluble”.
